Assay results published in patent US12121027B2, “Herbicidal combinations” (UPL LTD, priority 2018, dated 2024).

Assays:
Chenopodium album = assay: Herbicidal mixture trial, percentage weed control; type: in vivo; conditions: Pinoxaden 46 g/ha, Metribuzin 280 g/ha, 2,4-D 500 g/ha
Method: (§1) Trials were carried out for evaluating the herbicidal mixtures of the invention on different weeds. The percentage control was calculated from the observed percent weed coverage data after 15 DAA and 30 DAA.

Phalaris minor = assay: Herbicidal mixture trial, percentage weed control; type: in vivo; conditions: Pinoxaden 46 g/ha, Metribuzin 280 g/ha, 2,4-D 500 g/ha
Method: as §1

[1] = 15 DAA, combination 64 g/ha + 725 g/ha + 280 g/ha
[2] = 30 DAA, combination 64 + 725 + 280

With `O=C(O)COc1ccc(Cl)cc1Cl` [2,4-D] the “percentage control, Actual” value (Chenopodium album; [1]) was 90.3%, the “percentage control, Actual” value (Chenopodium album; [2]) was 86% and the “percentage control, Actual” value (Phalaris minor; [1]) was 29%. For the same molecule, the “percentage control, Actual” value (Phalaris minor; [2]) was 30.2%.
`CSc1nnc(C(C)(C)C)c(=O)n1N` [Metribuzin] was tested, and the “percentage control, Actual” value (Chenopodium album; [1]) was 78%, the “percentage control, Actual” value (Chenopodium album; [2]) was 88% and the “percentage control, Actual” value (Phalaris minor; [1]) was 67.4%. For the same molecule, the “percentage control, Actual” value (Phalaris minor; [2]) was 73.8%.
In the case of `CCc1cc(C)cc(CC)c1-c1c(OC(=O)C(C)(C)C)n2n(c1=O)CCOCC2` [Pinoxaden, N 8-(2,6-diethyl-p-tolyl)-1,2,4,5-tetrahydro-7-oxo-7H-pyrazolo[1,2-d][1,4,5]oxadiazepin-9-yl 2,2-dimethylpropionate], the “percentage control, Actual” value (Chenopodium album; [1]) is reported as 68%, the “percentage control, Actual” value (Chenopodium album; [2]) is reported as 85.3% and the “percentage control, Actual” value (Phalaris minor; [1]) is reported as 53.4%. For the same molecule, the “percentage control, Actual” value (Phalaris minor; [2]) was 73.6%.
